Assays:
[1] = target: T1, Amine oxidase [flavin-containing] A (Homo sapiens, UniProt P21397); experiment: Inhibition of MAO-A (unknown origin) by luminometry
T1 sequence (P21397 whole entry): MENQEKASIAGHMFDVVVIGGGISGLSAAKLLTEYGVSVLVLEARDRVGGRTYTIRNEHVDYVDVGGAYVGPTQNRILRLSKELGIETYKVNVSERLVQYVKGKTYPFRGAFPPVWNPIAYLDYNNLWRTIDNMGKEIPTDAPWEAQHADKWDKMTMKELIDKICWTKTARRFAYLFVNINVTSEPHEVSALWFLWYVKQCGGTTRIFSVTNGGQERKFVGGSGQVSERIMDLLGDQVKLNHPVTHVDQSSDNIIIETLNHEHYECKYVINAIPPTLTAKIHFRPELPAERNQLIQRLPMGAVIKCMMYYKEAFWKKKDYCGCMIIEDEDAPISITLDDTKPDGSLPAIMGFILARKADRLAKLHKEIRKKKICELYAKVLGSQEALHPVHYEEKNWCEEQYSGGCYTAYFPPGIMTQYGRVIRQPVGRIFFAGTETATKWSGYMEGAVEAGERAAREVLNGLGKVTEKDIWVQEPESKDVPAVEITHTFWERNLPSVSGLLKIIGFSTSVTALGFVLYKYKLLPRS

HAL-01 = experiment: cells; details: Homo sapiens
KE-37 = experiment: cells; details: Homo sapiens
P30-OHK = experiment: cells; details: Homo sapiens
SUP-B15 = experiment: cells; details: Homo sapiens
MOLT-4 = experiment: cells; details: Homo sapiens
LC4-1 = experiment: cells; details: Homo sapiens
[2] = target: T2, Lysine-specific histone demethylase 1A (Homo sapiens, UniProt O60341); experiment: Binding affinity to human KDM1A (172 to 833 residues) assessed as inhibition constant using Lys4-dimethylated H3 peptide as substrate incubated for 30 mins by enzymatic assay
[3] = target: Lysine-specific histone demethylase 2 (Homo sapiens, UniProt Q8NB78); experiment: Binding affinity to KDM1B (unknown origin) assessed as inhibition constant using Lys4-dimethylated H3 peptide as substrate incubated for 30 mins by enzymatic assay
Lysine-specific histone demethylase 2, sequence (Q8NB78 whole entry): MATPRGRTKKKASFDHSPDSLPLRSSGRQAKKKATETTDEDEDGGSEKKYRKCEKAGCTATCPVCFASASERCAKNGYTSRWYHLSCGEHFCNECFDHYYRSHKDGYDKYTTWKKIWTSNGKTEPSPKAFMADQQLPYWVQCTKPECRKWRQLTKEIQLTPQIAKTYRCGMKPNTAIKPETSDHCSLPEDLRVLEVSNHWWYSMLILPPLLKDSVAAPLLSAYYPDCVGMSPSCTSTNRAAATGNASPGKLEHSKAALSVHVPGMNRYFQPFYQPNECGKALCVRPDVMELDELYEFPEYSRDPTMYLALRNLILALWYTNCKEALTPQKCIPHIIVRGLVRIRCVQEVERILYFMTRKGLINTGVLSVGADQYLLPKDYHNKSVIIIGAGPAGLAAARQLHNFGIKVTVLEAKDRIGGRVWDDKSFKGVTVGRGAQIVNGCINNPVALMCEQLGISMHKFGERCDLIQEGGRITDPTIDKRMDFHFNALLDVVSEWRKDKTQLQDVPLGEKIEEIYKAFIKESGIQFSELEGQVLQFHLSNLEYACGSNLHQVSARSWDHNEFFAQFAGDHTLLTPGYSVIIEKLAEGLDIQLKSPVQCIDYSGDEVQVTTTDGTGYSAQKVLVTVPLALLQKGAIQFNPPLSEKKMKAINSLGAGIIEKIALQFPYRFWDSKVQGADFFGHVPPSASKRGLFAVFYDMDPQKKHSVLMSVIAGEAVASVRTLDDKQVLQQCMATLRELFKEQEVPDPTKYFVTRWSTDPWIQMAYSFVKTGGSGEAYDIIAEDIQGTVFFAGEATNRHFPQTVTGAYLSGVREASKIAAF

[4] = target: T1, Amine oxidase [flavin-containing] A; experiment: Binding affinity to human MAO-A assessed as inhibition constant using tyramine as substrate incubated for 30 mins by enzymatic assay
[5] = target: T3, Amine oxidase [flavin-containing] B (Homo sapiens, UniProt P27338); experiment: Binding affinity to human MAO-B assessed as inhibition constant using tyramine as substrate incubated for 30 mins by enzymatic assay
T3 sequence (P27338 whole entry): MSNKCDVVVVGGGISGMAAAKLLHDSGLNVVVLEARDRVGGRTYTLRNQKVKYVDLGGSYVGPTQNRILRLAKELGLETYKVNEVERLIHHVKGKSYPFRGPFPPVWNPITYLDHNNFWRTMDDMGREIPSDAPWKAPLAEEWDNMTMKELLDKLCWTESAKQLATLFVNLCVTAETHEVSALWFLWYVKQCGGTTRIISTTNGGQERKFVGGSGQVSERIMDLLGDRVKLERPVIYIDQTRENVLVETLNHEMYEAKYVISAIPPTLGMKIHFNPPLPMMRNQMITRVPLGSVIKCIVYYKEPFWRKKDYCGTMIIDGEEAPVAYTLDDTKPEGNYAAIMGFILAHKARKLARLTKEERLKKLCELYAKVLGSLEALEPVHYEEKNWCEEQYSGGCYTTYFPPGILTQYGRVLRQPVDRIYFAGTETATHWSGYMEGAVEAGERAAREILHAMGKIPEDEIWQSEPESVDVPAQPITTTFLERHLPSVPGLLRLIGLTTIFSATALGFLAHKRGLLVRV

[6] = target: T2, Lysine-specific histone demethylase 1A; experiment: Inhibition of recombinant human KDM1A (158 to 852 residues) using H3K4Me2 peptide as substrate preincubated for 15 mins followed by substrate addition measured after 60 mins by AlphaLISA assay
[7] = target: T2, Lysine-specific histone demethylase 1A
[8] = target: T4, Lysine-specific demethylase 4A (Homo sapiens, UniProt O75164); experiment: Inhibition of recombinant human KDM4A incubated for 30 mins by fluorescence based assay
T4 sequence (O75164 whole entry): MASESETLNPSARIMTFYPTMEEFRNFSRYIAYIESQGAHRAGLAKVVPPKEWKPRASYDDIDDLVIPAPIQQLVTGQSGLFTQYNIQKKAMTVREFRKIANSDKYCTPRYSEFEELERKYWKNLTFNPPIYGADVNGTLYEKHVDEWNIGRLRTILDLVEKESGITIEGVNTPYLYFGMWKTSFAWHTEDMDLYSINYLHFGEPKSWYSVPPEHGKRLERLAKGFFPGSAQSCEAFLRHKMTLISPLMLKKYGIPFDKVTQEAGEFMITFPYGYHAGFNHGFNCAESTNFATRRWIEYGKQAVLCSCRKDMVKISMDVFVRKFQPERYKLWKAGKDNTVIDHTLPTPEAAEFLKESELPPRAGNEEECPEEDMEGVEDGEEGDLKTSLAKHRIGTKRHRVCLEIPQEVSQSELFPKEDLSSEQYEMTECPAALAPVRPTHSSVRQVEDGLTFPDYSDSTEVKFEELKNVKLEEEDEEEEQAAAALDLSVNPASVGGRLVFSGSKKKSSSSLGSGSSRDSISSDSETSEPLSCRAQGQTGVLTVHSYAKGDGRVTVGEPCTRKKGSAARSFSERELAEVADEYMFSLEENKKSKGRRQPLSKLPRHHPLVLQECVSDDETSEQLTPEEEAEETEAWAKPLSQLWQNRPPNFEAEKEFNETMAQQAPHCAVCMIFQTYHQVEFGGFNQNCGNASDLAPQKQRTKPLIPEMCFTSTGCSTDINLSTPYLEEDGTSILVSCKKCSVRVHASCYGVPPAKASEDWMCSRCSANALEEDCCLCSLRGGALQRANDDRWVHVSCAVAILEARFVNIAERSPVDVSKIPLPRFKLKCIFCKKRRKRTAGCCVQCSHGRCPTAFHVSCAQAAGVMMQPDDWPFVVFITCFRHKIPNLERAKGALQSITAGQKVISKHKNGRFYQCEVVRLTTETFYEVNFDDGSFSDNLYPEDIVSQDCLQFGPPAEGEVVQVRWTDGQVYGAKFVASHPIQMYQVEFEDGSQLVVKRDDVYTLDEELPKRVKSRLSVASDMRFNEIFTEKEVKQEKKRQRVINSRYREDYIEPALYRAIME

[9] = target: T1, Amine oxidase [flavin-containing] A; experiment: Inhibition of MAO-A (unknown origin) by luminescence based assay
[10] = target: T3, Amine oxidase [flavin-containing] B; experiment: Inhibition of MAO-B (unknown origin) by luminescence based assay
[11] = target: T2, Lysine-specific histone demethylase 1A; experiment: Inhibition of recombinant human KMD1A (172 to 852 residues) using Bio-H3K4me2 peptide as substrate incubated for 1 hr by Lance ultra TR-FRET assay
[12] = target: Probable JmjC domain-containing histone demethylation protein 2C (Homo sapiens, UniProt Q15652); experiment: Binding affinity to CM7 sensor chip immobilized partial-length JMJD1C (2274 to 2498 residues) (unknown origin) expressed in Escherichia coli assessed as dissociation constant incubated for 60 secs by SPR analysis
Probable JmjC domain-containing histone demethylation protein 2C, sequence (Q15652 whole entry, the tested form may be a part): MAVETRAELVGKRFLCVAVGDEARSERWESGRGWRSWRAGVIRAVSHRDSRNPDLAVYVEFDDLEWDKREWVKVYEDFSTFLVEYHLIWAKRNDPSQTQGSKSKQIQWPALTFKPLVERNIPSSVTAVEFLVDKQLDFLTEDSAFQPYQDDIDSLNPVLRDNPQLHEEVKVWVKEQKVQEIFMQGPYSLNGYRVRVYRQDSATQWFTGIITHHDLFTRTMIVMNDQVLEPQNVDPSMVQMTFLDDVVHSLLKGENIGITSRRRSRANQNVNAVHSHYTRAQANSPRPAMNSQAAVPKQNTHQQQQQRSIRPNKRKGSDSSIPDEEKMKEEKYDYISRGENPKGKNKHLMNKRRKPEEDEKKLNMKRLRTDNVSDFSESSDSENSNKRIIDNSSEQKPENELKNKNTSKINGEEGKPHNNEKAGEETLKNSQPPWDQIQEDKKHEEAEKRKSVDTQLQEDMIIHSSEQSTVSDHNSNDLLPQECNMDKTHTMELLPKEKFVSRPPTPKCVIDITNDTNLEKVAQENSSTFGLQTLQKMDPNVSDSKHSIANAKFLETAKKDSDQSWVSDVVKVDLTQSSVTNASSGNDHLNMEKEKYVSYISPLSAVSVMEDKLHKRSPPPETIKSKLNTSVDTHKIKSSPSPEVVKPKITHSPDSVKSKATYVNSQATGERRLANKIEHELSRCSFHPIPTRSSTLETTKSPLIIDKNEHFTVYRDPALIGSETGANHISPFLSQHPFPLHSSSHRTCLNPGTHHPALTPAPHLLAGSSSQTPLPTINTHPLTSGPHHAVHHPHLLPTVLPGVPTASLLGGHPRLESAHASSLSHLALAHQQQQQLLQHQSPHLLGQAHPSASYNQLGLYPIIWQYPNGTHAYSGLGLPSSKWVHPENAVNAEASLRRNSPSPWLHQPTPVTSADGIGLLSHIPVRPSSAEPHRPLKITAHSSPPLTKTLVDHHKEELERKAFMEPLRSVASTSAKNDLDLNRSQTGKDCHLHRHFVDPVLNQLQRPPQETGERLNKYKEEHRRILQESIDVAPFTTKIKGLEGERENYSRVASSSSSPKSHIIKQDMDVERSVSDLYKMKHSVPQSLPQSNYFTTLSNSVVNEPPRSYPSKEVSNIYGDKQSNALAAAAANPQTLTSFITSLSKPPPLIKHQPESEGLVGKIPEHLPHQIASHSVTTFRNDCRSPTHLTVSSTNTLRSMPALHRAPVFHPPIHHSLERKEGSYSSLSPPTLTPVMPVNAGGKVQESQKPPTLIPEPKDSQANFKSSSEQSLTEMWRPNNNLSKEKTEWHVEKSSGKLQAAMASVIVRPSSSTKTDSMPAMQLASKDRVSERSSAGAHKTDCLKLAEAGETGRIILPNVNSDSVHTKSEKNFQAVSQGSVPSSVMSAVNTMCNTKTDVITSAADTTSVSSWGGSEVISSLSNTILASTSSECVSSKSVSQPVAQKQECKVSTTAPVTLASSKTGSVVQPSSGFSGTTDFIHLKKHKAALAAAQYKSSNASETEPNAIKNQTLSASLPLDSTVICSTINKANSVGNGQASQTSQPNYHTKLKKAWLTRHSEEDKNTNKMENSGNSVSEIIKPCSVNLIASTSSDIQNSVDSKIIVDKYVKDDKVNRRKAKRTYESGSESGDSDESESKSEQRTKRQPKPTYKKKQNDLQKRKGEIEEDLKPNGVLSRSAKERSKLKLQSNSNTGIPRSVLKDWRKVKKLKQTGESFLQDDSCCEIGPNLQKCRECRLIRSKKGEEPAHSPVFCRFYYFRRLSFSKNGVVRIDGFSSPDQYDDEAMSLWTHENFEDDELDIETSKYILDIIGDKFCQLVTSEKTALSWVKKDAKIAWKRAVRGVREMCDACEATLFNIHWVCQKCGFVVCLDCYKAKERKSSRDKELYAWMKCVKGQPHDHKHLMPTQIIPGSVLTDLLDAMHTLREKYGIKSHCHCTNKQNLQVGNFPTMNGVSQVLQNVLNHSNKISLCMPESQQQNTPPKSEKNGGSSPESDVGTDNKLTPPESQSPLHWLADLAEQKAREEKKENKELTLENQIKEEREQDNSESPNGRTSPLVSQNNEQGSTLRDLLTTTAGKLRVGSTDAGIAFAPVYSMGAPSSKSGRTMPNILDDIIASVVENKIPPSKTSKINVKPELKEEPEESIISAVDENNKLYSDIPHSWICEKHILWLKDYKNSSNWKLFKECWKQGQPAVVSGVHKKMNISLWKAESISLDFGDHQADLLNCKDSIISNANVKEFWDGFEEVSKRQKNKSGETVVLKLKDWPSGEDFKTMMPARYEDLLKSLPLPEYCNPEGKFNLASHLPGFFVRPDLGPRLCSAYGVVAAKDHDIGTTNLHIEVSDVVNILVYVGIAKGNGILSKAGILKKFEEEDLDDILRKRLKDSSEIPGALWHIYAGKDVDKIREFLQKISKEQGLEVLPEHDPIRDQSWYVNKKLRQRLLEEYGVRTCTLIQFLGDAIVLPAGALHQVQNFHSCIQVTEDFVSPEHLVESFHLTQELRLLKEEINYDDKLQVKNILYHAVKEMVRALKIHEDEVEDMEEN

[13] = target: Lysine-specific demethylase 3B (Homo sapiens, UniProt Q7LBC6); experiment: Binding affinity to CM7 sensor chip immobilized full-length KDM3B (unknown origin) expressed in Sf9 insect cells assessed as dissociation constant incubated for 60 secs by SPR analysis
Lysine-specific demethylase 3B, sequence (Q7LBC6 whole entry): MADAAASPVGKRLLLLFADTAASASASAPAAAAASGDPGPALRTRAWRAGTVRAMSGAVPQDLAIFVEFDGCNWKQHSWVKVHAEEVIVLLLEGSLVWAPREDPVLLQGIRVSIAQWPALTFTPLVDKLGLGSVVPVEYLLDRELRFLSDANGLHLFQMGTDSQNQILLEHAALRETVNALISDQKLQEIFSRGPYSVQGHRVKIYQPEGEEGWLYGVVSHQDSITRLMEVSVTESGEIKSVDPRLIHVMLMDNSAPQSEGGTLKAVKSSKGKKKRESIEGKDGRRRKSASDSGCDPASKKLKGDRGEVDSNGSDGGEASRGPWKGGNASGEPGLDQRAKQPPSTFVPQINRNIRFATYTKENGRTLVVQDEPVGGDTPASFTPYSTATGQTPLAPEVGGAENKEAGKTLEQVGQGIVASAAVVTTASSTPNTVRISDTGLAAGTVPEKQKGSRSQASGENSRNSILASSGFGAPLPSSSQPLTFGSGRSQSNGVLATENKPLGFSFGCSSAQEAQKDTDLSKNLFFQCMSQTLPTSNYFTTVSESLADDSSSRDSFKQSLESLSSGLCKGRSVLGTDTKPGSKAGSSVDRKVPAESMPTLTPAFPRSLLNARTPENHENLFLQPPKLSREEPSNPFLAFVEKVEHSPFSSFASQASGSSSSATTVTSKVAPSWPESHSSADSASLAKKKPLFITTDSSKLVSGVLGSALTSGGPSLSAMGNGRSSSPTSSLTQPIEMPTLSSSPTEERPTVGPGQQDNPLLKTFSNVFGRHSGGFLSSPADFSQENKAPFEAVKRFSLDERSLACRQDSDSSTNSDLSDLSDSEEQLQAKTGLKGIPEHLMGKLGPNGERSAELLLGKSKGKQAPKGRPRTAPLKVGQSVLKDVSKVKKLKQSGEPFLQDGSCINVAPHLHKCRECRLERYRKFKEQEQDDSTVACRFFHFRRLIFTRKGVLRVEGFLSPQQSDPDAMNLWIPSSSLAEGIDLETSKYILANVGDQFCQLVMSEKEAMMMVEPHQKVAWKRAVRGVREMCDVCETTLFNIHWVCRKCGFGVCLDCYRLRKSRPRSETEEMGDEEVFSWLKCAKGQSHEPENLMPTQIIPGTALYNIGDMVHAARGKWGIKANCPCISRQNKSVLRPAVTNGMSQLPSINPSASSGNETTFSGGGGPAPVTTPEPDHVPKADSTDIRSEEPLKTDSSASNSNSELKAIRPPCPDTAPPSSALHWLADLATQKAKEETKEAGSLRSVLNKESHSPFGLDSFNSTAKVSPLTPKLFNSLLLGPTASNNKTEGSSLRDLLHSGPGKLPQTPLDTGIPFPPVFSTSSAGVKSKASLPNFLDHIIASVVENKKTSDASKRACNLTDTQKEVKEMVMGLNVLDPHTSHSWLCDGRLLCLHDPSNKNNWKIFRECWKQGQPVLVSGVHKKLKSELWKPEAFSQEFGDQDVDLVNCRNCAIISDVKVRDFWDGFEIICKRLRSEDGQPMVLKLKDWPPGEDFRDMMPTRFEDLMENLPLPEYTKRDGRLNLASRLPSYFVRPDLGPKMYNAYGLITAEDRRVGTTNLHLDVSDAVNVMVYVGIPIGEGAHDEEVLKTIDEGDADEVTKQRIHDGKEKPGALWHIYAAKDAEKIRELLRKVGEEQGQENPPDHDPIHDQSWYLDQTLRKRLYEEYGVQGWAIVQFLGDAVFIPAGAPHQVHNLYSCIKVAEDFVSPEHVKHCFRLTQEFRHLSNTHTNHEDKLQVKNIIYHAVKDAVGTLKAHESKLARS

[14] = target: Lysine-specific demethylase 6B (Homo sapiens, UniProt O15054); experiment: Binding affinity to KDM6B (unknown origin) assessed as inhibition constant
MAO-A [15] = target: T5, MAO-A (Homo sapiens, UniProt P21397); experiment: Inhibition of recombinant MAO-A (unknown origin) at 10 uM by luminometry relative to control
T5 sequence (P21397 whole entry): T1 sequence (P21397 whole entry)

MAO-B [16] = target: T6, MAO-B (Homo sapiens, UniProt P27338); experiment: Inhibition of recombinant MAO-B (unknown origin) at 10 uM by luminometry relative to control
T6 sequence (P27338 whole entry): T3 sequence (P27338 whole entry)

MAO-A [17] = target: T5, MAO-A; experiment: Inhibition of MAO-A (unknown origin) at 10 uM relative to control
MAO-B [18] = target: T6, MAO-B; experiment: Inhibition of MAO-B (unknown origin) at 10 uM relative to control
[19] = target: T2, Lysine-specific histone demethylase 1A; experiment: Inhibition of KDM1A (unknown origin) by fluorescence based assay
MAO-A [20] = target: T5, MAO-A; experiment: Inhibition of recombinant MAO-A (unknown origin) using luciferin substrate at 100 uM preincubated for 15 mins followed by substrate addition measured after 1 hr by luciferase based assay relative to control; details: probe luciferin substrate, time 75 min
MAO-B [21] = target: T6, MAO-B; experiment: Inhibition of recombinant MAO-B (unknown origin) using luciferin substrate at 100 uM preincubated for 15 mins followed by substrate addition measured after 1 hr by luciferase based assay relative to control; details: probe luciferin substrate, time 75 min

SMILES: CC(C)(C)OC(=O)N1CCN(C(=S)SCC(=O)Nc2ccc(C(=O)/C=C/c3ccccc3F)cc2)CC1
- IC50 [1]: 20 µM
- IC50 (HAL-01): 1.1 µM
- IC50 (KE-37): 3.64 µM
- IC50 (P30-OHK): 3.85 µM
- IC50 (SUP-B15): 1.87 µM
- IC50 (MOLT-4): 0.87 µM
- IC50 (LC4-1): 2.73 µM

SMILES: CN1CCN(C(=O)NC2CC2c2cc(F)cc(F)c2OCc2ccccc2)CC1 (centres undefined)
- Ki [2]: 0.37 µM
- Ki [3]: > 250 µM
- Ki [4]: > 250 µM
- Ki [5]: > 250 µM

SMILES: COCc1cccc(NC(=O)c2cc3ccccc3n2C)c1COc1ccc(OCC2CCNCC2)cc1
- IC50 [6]: 4 µM

SMILES: CSCC[C@H](NC(=O)[C@@H](NC(=O)[C@H](CCCNC(=N)N)NC(=O)[C@H](C)N)[C@@H](C)O)C(=O)N[C@@H](CCC(N)=O)C(=O)N[C@H](C(=O)N[C@@H](C)C(=O)N[C@@H](CCCNC(=N)N)C(=O)N[C@@H](CCCCN)C(=O)N[C@@H](CO)C(=O)N[C@H](C(=O)O)[C@@H](C)O)[C@@H](C)O
- Kd [7]: 140 µM

SMILES: O=C(O)c1cc(O)c(=O)c2c(O)c(O)cc(-c3ccccc3)c2c1
- IC50 [8]: 24.4 µM

SMILES: CC1(C)C(N[C@@H]2C[C@H]2c2ccccc2)CCC1N[C@@H]1C[C@H]1c1ccccc1 (some centres undefined)
- IC50 [9]: 0.00729 µM
- IC50 [10]: 9.41 µM
- IC50 [11]: 4.8 µM

SMILES: CC(=O)Nc1ccc(S(=O)(=O)N[C@H]2CO[C@H]3[C@@H]2OC[C@@H]3Nc2nccc(-c3cccc(C(C)(C)C)c3)n2)cc1
- Kd [12]: 8.06 µM
- Kd [13]: 7.79 µM

SMILES: O=c1c(-c2ccc(O)cc2)coc2c([C@@H]3O[C@H](CO[C@@H]4OC[C@@H](O)[C@H](O)[C@H]4O)[C@@H](O)[C@H](O)[C@H]3O)c(O)ccc12
- Ki [14]: 7.46 µM

SMILES: COc1cc2c(cc1OC)-c1cc3ccc4c(c3c[n+]1CC2)OCO4
- inhibition at 10 µM (MAO-A [15]): 70%
- inhibition at 10 µM (MAO-B [16]): 40%

SMILES: COc1ccc(-c2coc3cc(O)cc(O)c3c2=O)cc1 [BIOCHANIN]
- inhibition at 10 µM (MAO-A [17]): 23.5%
- inhibition at 10 µM (MAO-B [18]): 36.8%

SMILES: C=C[C@]1(C)C[C@@H]2OC(=O)C(C)=C2C[C@H]1C(=C)C [ISOGERMAFURENOLIDE]
- IC50 [19]: 3.97 µM

SMILES: CC(=O)Nc1ccc(S(=O)(=O)N[C@H]2CO[C@H]3[C@@H]2OC[C@@H]3Nc2nccc(-c3ccccc3)n2)cc1
- Kd [12]: 2.7 µM
- Kd [13]: 0.13 µM

SMILES: Cc1ccc(-c2nc(SCc3cn(CC(=O)NC(=O)Nc4ccccn4)nn3)nc(Nc3cccc(C(F)(F)F)c3)c2C#N)cc1
- inhibition at 1 h, 100 µM (MAO-A [20]): < 5%
- inhibition at 1 h, 100 µM (MAO-B [21]): < 5%
